Experiment: xn = mol fraction of the nth substance listed
Conditions: Liquid; for viscosity: Capillary tube (Ostwald / Ubbelohde) method; for mass density: isochoric method

CCCCCCCC [octane] + CCCCCCC
Conditions | mass density [kg/m3] | viscosity [mPa·s]
323.82 K, 10000 kPa, x2 = 0.7906 | – | 0.353
331.45 K, 4121 kPa, x2 = 0.7906 | 658.7 | –
331.45 K, 6311 kPa, x2 = 0.7906 | 662.6 | –
331.45 K, 8523 kPa, x2 = 0.7906 | 665.5 | –
331.45 K, 10350 kPa, x2 = 0.7906 | 667.1 | –
331.55 K, 4119 kPa, x2 = 0.5427 | 665 | –
331.55 K, 5944 kPa, x2 = 0.5427 | 668.1 | –
331.55 K, 8203 kPa, x2 = 0.5427 | 670.9 | –
331.55 K, 10100 kPa, x2 = 0.5427 | 672.6 | –
333.15 K, 100 kPa, x2 = 0.2808 | 664.9 | –
333.15 K, 100 kPa, x2 = 0.5427 | 659.9 | –
333.15 K, 100 kPa, x2 = 0.7906 | 654.4 | –
333.54 K, 100 kPa, x2 = 0.2808 | – | 0.322
333.54 K, 5000 kPa, x2 = 0.2808 | – | 0.341
333.54 K, 10000 kPa, x2 = 0.2808 | – | 0.36
333.73 K, 100 kPa, x2 = 0.5427 | – | 0.3
333.73 K, 5000 kPa, x2 = 0.5427 | – | 0.319
333.73 K, 10000 kPa, x2 = 0.5427 | – | 0.338
335.62 K, 100 kPa, x2 = 0.7906 | – | 0.281
335.62 K, 5000 kPa, x2 = 0.7906 | – | 0.298
335.62 K, 10000 kPa, x2 = 0.7906 | – | 0.316
338.15 K, 100 kPa, x2 = 0.2808 | 661 | –
338.15 K, 100 kPa, x2 = 0.5427 | 655.6 | –
338.15 K, 100 kPa, x2 = 0.7906 | 650.1 | –
343.15 K, 100 kPa, x2 = 0.2808 | 656.8 | –
343.15 K, 100 kPa, x2 = 0.5427 | 651.2 | –
343.15 K, 100 kPa, x2 = 0.7906 | 645.6 | –
344.21 K, 100 kPa, x2 = 0.7906 | – | 0.26
344.21 K, 5000 kPa, x2 = 0.7906 | – | 0.276
344.21 K, 10000 kPa, x2 = 0.7906 | – | 0.292
344.39 K, 100 kPa, x2 = 0.2808 | – | 0.291
344.39 K, 5000 kPa, x2 = 0.2808 | – | 0.308
344.39 K, 10000 kPa, x2 = 0.2808 | – | 0.325
344.4 K, 100 kPa, x2 = 0.5427 | – | 0.273
344.4 K, 5000 kPa, x2 = 0.5427 | – | 0.29
344.4 K, 10000 kPa, x2 = 0.5427 | – | 0.307
352.61 K, 2844 kPa, x2 = 0.5427 | 648 | –
352.61 K, 8237 kPa, x2 = 0.5427 | 654.9 | –
352.61 K, 10040 kPa, x2 = 0.5427 | 657 | –
352.62 K, 100 kPa, x2 = 0.5427 | – | 0.255
352.62 K, 5000 kPa, x2 = 0.5427 | – | 0.27
352.62 K, 10000 kPa, x2 = 0.5427 | – | 0.286
353.2 K, 100 kPa, x2 = 0.7906 | – | 0.239
353.2 K, 5000 kPa, x2 = 0.7906 | – | 0.255
353.2 K, 10000 kPa, x2 = 0.7906 | – | 0.27
354.08 K, 100 kPa, x2 = 0.2808 | – | 0.267
354.08 K, 5000 kPa, x2 = 0.2808 | – | 0.283
354.08 K, 10000 kPa, x2 = 0.2808 | – | 0.299
357.15 K, 100 kPa, x2 = 0.2808 | 644.3 | –
357.15 K, 100 kPa, x2 = 0.5427 | 638.8 | –
357.15 K, 100 kPa, x2 = 0.7906 | 633 | –
362.65 K, 4800 kPa, x2 = 0.2808 | 646.1 | –
362.65 K, 6720 kPa, x2 = 0.2808 | 649 | –
362.65 K, 9300 kPa, x2 = 0.2808 | 652.5 | –
363.71 K, 100 kPa, x2 = 0.2808 | – | 0.245
363.71 K, 5000 kPa, x2 = 0.2808 | – | 0.261
363.71 K, 10000 kPa, x2 = 0.2808 | – | 0.276
363.74 K, 100 kPa, x2 = 0.5427 | – | 0.232
363.74 K, 5000 kPa, x2 = 0.5427 | – | 0.247
363.74 K, 10000 kPa, x2 = 0.5427 | – | 0.26
364.62 K, 100 kPa, x2 = 0.7906 | – | 0.216
364.62 K, 5000 kPa, x2 = 0.7906 | – | 0.232
364.62 K, 10000 kPa, x2 = 0.7906 | – | 0.246
365.46 K, 3432 kPa, x2 = 0.7906 | 631.8 | –
365.46 K, 8983 kPa, x2 = 0.7906 | 639.4 | –
365.46 K, 9963 kPa, x2 = 0.7906 | 640.9 | –
